Entries after “also recorded” stand apart in the source; their conditions may differ.
Tests used:
[1] = test system: MPTP-, haloperidol-, and rotenone-induced models; conditions: cited from earlier work; for Dose showing antiparkinsonian activity: various mouse and rat models (MPTP-, haloperidol-, rotenone-induced)
[2] = Pharmacokinetics of PA-96 after single oral (p.o.) administration to mice; type: in vivo, CD-1 mice; conditions: for Tmax / bioavailability / Cmax / half-life / AUC(0-t) / Vd/F: both sexes, CD-1, mouse, whole blood; for Tmax / Cmax / half-life / AUC(0-t) / Vd/F: po; for bioavailability: oral, assessed via AUC of i.v. injection at 1 mg/kg; for Vd/F: read-out: Vz/F_obs
Protocol: After the development and validation of the method for determination of PA-96 in mice blood, a preliminary pharmacokinetic study was carried out. The agent PA-96 was administered to two mice per os as a suspension in Tween-80 at a dose of 10 mg/kg, and blood samples were taken from the animals at 0.5, 1, 1.5, 2, 2.5, 3, 3.5, 4, 5, 5.5, and 24 h after administration. Four 10 µL samples were taken at each timepoint: two were spotted onto the paper and dried, and two others were precipitated using the ZnSO4 solution. All prepared samples were analysed, and the graph representing the PA-96 peak area values was plotted (Figure 6). […] As such, the PPT method for whole blood samples was chosen for the next experiments.
After administration, blood samples were taken from the tail vein of each animal at 5, 10, 20, 30, 40, 50, 60, 75, 90, 120, and 150 min, and the samples were prepared following the PPT protocol.
(§1) The LC–MS/MS analysis was carried out using a Shimadzu LC-20AD Prominence chromatograph equipped with a cooling autosampler, binary gradient pump, and column oven (Shimadzu, Japan) coupled with a 3200 QTRAP mass spectrometer (AB SCIEX, Framingham, MA, USA) equipped with an electrospray ionisation source (ESI). The mass spectrometer worked in positive mode and multiple reaction monitoring (MRM) detection mode for quantitation. Analyst 1.6.2 software (AB SCIEX, Framingham, MA, USA) was used for instrument control and data acquisition, and MultiQuant 2.1 software (AB SCIEX, Framingham, MA, USA) was used for quantitation. To calculate the main pharmacokinetic parameters, the Microsoft Excel plugin PKSolver was used.
(§2) CD-1 mice (male and female) were obtained from the SPF vivarium of the Institute of Cytology and Genetics, Russia. The mice weighed 25–30 g at the beginning of the experiment.
An accurately weighed amount of PA-96 was mechanically mixed with Tween-80 using a mortar and pestle followed by suspending the obtained sample in physiological solution. The animals (n = 2) received a single dose of 10 mg/kg per os (p.o.). The timepoints were 0.5, 1, 1.5, 2, 2.5, 3, 3.5, 4, 5, 5.5, and 24 h. At each timepoint, 10 µL of blood was taken from the tail vein, and the sample was prepared by DBS and PPT with ZnSO4 in methanol. Afterwards, the samples were analysed in accordance with the HPLC–MS/MS protocol.
In the next experiment, the sampling scheme was optimised by changing the timepoints as follows: 5, 10, 20, 30, 40, 50, 60, 75, and 90 min, and 2, 2.5, 3, 3.5, 4, and 5 h; this was in order to investigate the pharmacokinetics more thoroughly. The experiment design was not changed, but the sample preparation was carried out by the PPT method exclusively.
(§3) In order to investigate the bioavailability and dose proportionality, PA-96 was administered p.o. at the dosages of 1, 5, and 10 mg/kg and intravenously (i.v.) at the dosages of 1 and 10 mg/kg. For each experiment, we used 6–7 mice. The blood was drawn from the tail vein at the following timepoints: 3, 5, 10, 15, 30, 45, 60, 90, 120, and 150 min. The samples were prepared and analysed.

[3] = Pharmacokinetics of PA-96 after double p.o. administration to mice; type: in vivo, CD-1 mice; conditions: for AUC(0-t) / Cmax / half-life / Vd/F: 5 mg/kg; for Vd/F: read-out: Vz/F_obs
Protocol: In our work, an experiment with double administration of the agent PA-96 was carried out. The substance was administered to mice (n = 6) two times at doses of 5 mg/kg within the interval of 4 h as a formulation in Tween-80. After the first administration, blood was collected from the tail vein of each animal at 5, 10, 20, 30, 40, 50, 60, 75, and 90 min, and 2, 2.5, 3, 3.5, and 4 h. After the administration of the second dose, blood was collected at the same timepoints, and all samples were prepared following the PPT protocol.
as §1, §2
To investigate the pharmacokinetics of PA-96 in a multiple dosing regimen, the dosage form was prepared as described above, but only half was administered to the animals (n = 6). The first portion, corresponding to a dose of 5 mg/kg, was administered to the mice followed by blood sampling at 5, 10, 20, 30, 40, 50, 60, 75, and 90 min, and 2, 2.5, 3, 3.5, and 4 h after administration. At the latter timepoint, the second dose was administered, and the blood was sampled at the same timepoints as listed above.

[4] = Pharmacokinetics of PA-96 after intravenous (i.v.) injection to mice; type: in vivo, CD-1 mice; conditions: for AUC(0-t) / Cmax / Tmax / half-life: both sexes, CD-1, mouse, whole blood, iv
Protocol: To evaluate the bioavailability of the agent PA-96, a suspension of the compound with Tween-80 was administered intravenously at doses of 1 and 10 mg/kg. After administration, blood in an amount of approximately 10 µL was collected from the tail vein of each animal at 5, 10, 15, 30, 45, 60, 90, 120, and 150 min, and samples were prepared following the PPT protocol.
Therefore, it was necessary to widen the operating concentration range of the calibration curve. To quantify PA-96 in these blood samples, we prepared and analysed spikes containing the agent in concentrations of 530, 1325, 2650, 3530, 8800, 10,600, and 21,200 ng/mL, which were used to construct a high-concentration calibration curve. In addition to these calibrators, quality control samples were prepared containing PA-96 at the concentrations of 1760, 5300, and 17,100 ng/mL (QCL, QCM, and QCH, respectively). […] As the objective of building this calibration curve was to evaluate the concentration of PA-96 only in several samples, the full validation of this expansion of the developed bioanalytical method was not performed.
as §1, §2
as §3, with “For each experiment, we used 6–7 mice.” left out

[5] = Stability of PA-96 in whole mouse blood; type: in vitro ADME, mice; conditions: spike 50 ng/mL, 5-240 min
Description: A crucial factor to consider is the stability of the compound in biological matrices. Both whole blood and plasma may contain enzymes able to metabolise the substance, and the metabolism rate can be relatively high. This can result in a rapid decrease in the substance concentration and an incorrect calibration curve. Additionally, if blood samples from experimental animals are dried as spots, metabolism during drying may lead to incorrect analyte concentrations. Considering these factors, we investigated the stability of the agent PA-96 in whole mouse blood.
(§4) To study the influence of the enzymes on the PA-96 stability in whole blood, mice blood spikes containing PA-96 in the concentration of 50 ng/mL were prepared. Aliquots of the spike were precipitated according to the protocol described above. Sampling was carried out at the following timepoints: 5, 10, 20, 30, 40, 50, 120, 180, and 240 min. The long-term stability of the samples was studied by the comparison of freshly prepared samples and samples prepared and kept in different conditions for 7 days. The storage conditions were the following: room temperature (+23 °C), household fridge (+4 °C), and Kelvinator (−70 °C). The acceptance criterion was a CV ≤ 15% for every day and any storing condition.

[6] = Stability of PA-96 in prepared samples under different storage conditions; type: physicochemical; conditions: within 7 days; +23 °C, +4 °C, −70 °C
Protocol: The stability of PA-96 in the prepared samples was investigated at different storage conditions, as mentioned in the experimental methods section.
as §4

[7] = test system: cultured naïve dopamine neurons; set-up: method as in PMID 36500381; conditions: in vitro; cited from earlier work
[8] = test system: mice; conditions: acute toxicity; cited from earlier work
[9] = 5 mg/kg, single p.o., mice, mean ± SEM, n = 4
[10] = 10 mg/kg, single p.o., mice, mean ± SEM, n = 4
[11] = single p.o., 5 mg/kg, mice, mean ± SEM, n = 4
[12] = single p.o., 10 mg/kg, mice, mean ± SEM, n = 4
[13] = both sexes, CD-1, mouse, whole blood, po, double p.o. 2×5 mg/kg, 1st administration, mean ± SEM, n = 6
[14] = both sexes, CD-1, mouse, whole blood, po, double p.o. 2×5 mg/kg, 2nd administration, mean ± SEM, n = 6
[15] = animal MPTP and haloperidol models of PD

For N[C@@H](Cc1ccc(O)c(O)c1)C(=O)O [L-DOPA, reference compound], the “Dose showing antiparkinsonian activity” value [1] is listed as 50 to 100 mg/kg.
C=C(C)[C@@H]1CC=C(C)[C@@H](Sc2nc[nH]n2)[C@@H]1O [PA-96] showed a Tmax ([2]; single p.o., 5 mg/kg, mice, mean ± SEM, n = 4, read-out: Tmax (converted)) of 6.3 min, a Tmax ([2]; single p.o., 10 mg/kg, mice, mean ± SEM, n = 4, read-out: Tmax (converted)) of 8.8 min and a bioavailability ([2]; p.o. 5 mg/kg, mice) of ~7%. For the same molecule, the bioavailability ([2]; p.o. 10 mg/kg, mice) was ~35%, the Cmax [2, 9] was ~36 ng/mL and the half-life [2, 9] was 44 ± 13 min. The Cmax [2, 10] was ~588 ng/mL, the half-life [2, 10] was 15 min and the Tmax ([2]; p.o. doses of 5 mg/kg and 10 mg/kg, mice, read-out: Time of maximum concentration after administration) was 5 to 10 min. For the same molecule, the AUC(0-t) [2, 11] was 28.3 ng·h/mL, the Vd/F [2, 11] was 190 L/kg and the AUC(0-t) [2, 12] was 300 ng·h/mL. For the same molecule, the Vd/F [2, 12] was 13.7 L/kg, the “Signal (concentration) in blood samples” value ([2]; p.o. 1 mg/kg, n = 2, mice, LLOQ 25 ng/mL) was “lower than the LLOQ” and the “Time of complete elimination at oral administration” value ([2]; p.o. 5 and 10 mg/kg, mice) was 2.5 to 3 h. The “Increase in both Cmax and AUC on twofold increase in the dose” value ([2]; p.o. 5 vs 10 mg/kg, mice) was “by an order of magnitude”, the “Time of complete elimination” value ([2]; preliminary study, p.o. 10 mg/kg, n = 2 mice) was 2.5 h and the “Timepoint of maximum concentration” value ([2]; preliminary study, p.o. 10 mg/kg, n = 2 mice, first timepoint sampled) was 30 min. For the same molecule, the t1/2 [2, 12] was 15.2 ± 1.2 min, the AUC(0-t) [3, 13] was 25 ng·h/mL and the Cmax [3, 13] was 60 ± 15 ng/mL. For the same molecule, the half-life [3, 13] was 21 ± 4 min, the Vd/F [3, 13] was 108 ± 25 L/kg and the AUC(0-t) [3, 14] was 135 ng·h/mL. It also gave a Cmax [3, 14] of 58 ± 13 ng/mL, a half-life [3, 14] of 19 ± 3 min and a Vd/F [3, 14] of 25 ± 4 L/kg. For the same molecule, the Tmax ([3]; both sexes, CD-1, mouse, whole blood, po, double p.o. 2×5 mg/kg, interval 4 h, 1st administration, mean ± SEM, n = 6) was 10 min, the “Accumulation after double administration (Cmax, AUC0-∞)” value ([3]; double p.o. 2×5 mg/kg, interval 4 h, mice) was “absence of its accumulation” and the “Time to full elimination after administration” value ([3]; p.o. 5 mg/kg, double administration experiment, mice) was 4 h. The AUC(0-t) ([4]; 1 mg/kg, mean ± SEM, n = 6) was 85 ng·h/mL, the Cmax ([4]; 1 mg/kg, mean ± SEM, n = 6) was 390 ng/mL and the Tmax ([4]; 1 mg/kg, mean ± SEM, n = 6) was 3.3 min. The half-life ([4]; 1 mg/kg, mean ± SEM, n = 6) was 37 ± 10 min, the AUC(0-t) ([4]; 10 mg/kg, mean ± SEM, n = 2) was 2170 ng·h/mL and the Cmax ([4]; 10 mg/kg, mean ± SEM, n = 2) was > 7700 ng/mL. For the same molecule, the half-life ([4]; 10 mg/kg, mean ± SEM, n = 2) was 26.1 ± 2.9 min, the Tmax ([4]; 10 mg/kg, n = 2) was 3 min and the “Concentration level 1 h after administration” value ([4]; i.v. 1 and 10 mg/kg) was “several nanograms per mL”. For the same molecule, the “Time in which concentration decreases twofold after injection” value ([4]; i.v. 1 and 10 mg/kg) was 10 to 15 min, the “Increase of AUC when the dose was increased tenfold” value ([4]; i.v. 1 vs 10 mg/kg) was “approximately 25 times” and the “Increase of Cmax when the dose was increased tenfold” value ([4]; i.v. 1 vs 10 mg/kg) was “twentyfold”. The “PA-96 concentration in whole mouse blood during stability investigation” value [5] was “consistent within the accuracy of analysis error”, the “Change of PA-96 concentration in prepared samples” value [6] was ≤ 11% and the “Effect on motor deficits” value ([1]; MPTP and haloperidol-based mice models of Parkinson's disease) was “alleviated motor deficits”. The “Density of tyrosine hydroxylase positive neurons and dopamine concentration in the midbrain” value ([1]; MPTP-damaged brain) was “increased”, the “Antiparkinsonian activity relative to Prottremine” value [1, 15] was “more active than Prottremine” and the “Dose at which antiparkinsonian effect was displayed” value [1, 15] was 1 mg/kg. The “Survival of cultured naïve dopamine neurons” value [7] was “supported the survival; also recorded: improved potency”.
In the case of C=C(C)[C@@H]1CC=C(C)[C@@H](O)[C@@H]1O [Prottremine, (1R,2R,6S)-3-methyl-6-(prop-1-en-2-yl)cyclohex-3-ene-1,2-diol], the LD50 [8] is given as 4250 mg/kg and the “Dose showing antiparkinsonian activity” value [1] is given as 20 mg/kg.

— paper PMC11434290, “Pharmacokinetics and Dose Proportionality Study of a Novel Antiparkinsonian Agent, a 1H-1,2,4-Triazol-3-ylthio-conjugate of Prottremine” (Molecules, 2024)
